Assay results reported in patent publication US7723328B2, “Methods of facilitating cell survival using neurotrophin mimetics” (The University of North Carolina at Chapel Hill, priority 2005, dated 2010).
Entries after “also recorded” stand apart in the source; their conditions may differ.

How the values were obtained:
chicken DRG neuronal = assay: Chicken DRG neuronal survival assay; type: cell-based; settings: preliminary screening
[1] = tested on: E16-17 mouse hippocampal neurons; assay: Hippocampal neuron survival (morphology plus MTT conversion); type: cell-based; settings: 48 h; counts normalized to 25 ng/ml BDNF or baseline; up to 5 nM
Method: (§1) Hippocampal neurons were prepared from E16-17 mouse embryos as previously described (Yang. T. et al. (2003) J Neurosci 23, 3353-3363). […] For studies employing p75^NTR+/+ and p75^NTR−/− neurons, mice carrying a mutation in exon 3 of the p75^NTR gene (Lee, K. F. et al. (1992) Cell 69, 737-749) were bred onto a B6 congenic background (>10 B6 backcrosses).
(§2) After 48 hours in culture, cell survival was assessed as previously described (Longo, F. M., Manthorpe. M., Xie. Y. M., Varon, S. (1997) J Neurosci Res 48, 1-17) using a combination of standard morphological criteria along with visual determination of whether a given cell converted MTT to its blue formazan product. The number of surviving neurons was determined by counting the total number of cells in each well that were both morphologically intact and filed with blue product (Longo F. M., Manthorpe. M., Xie, Y. M., Varon, S. (1997) J Neurosci Res 48, 1-17). For each neurotrophin or compound concentration, duplicate wells were counted and the resulting values averaged. Activity of each compound was confirmed by blinded counts. Counts were normalized to survival achieved with 25 ng/ml BDNF or to baseline survival. Fitting of dose-responsive curves was performed with Sigmaplot obtained from SYSTAT Software Inc. (Richmond, Calif., United States of America).

E17 hippocampal neurons = assay: Aβ-induced death of hippocampal neurons; type: cell-based; settings: Aβ1-42 10 μM; NGF at 100 pg/ml
Method: Using previously well established protocols, Aβ was preincubated for 3 days in water to allow formation of oligomers. E17 hippocampal neurons were incubated for 5 days to allow for maturation prior to addition of Aβ with test compounds.

NFκB-p65 = NFκB-p65 phosphorylation western blot in hippocampal cultures; type: cell-based, mouse; settings: compounds 20 nM, BDNF/NGF 50 ng/ml; 10 and 30 min
Method: For assays of Trk, AKT, NFκB, and ERK activation, hippocampal neurons derived from E16-17 mice were cultured in poly-L-lysine coated six-well plates (Corning, Inc., Corning, N.Y., United States of America) in DMEM containing 10% FBS, followed by incubation in serum-free DMEM for 2 hours before addition of neurotrophins or compounds. At the indicated time points, neurons were harvested in lysis buffer consisting of: 20 mM Tris, pH 8.0, 137 mM NaCl, 1% Igepal CA-630, 10% glycerol, 1 mM PMSF, 10 μg/ml aprotinin, 1 μg/ml leupeptin, 500 μM orthovanadate (Zhou, J., Valletta, J. S., Grimes, M. L., Mobley, W. C. (1995) J Neurochem 65, 1146-1156).
Lysates were centrifuged, the supernatant collected, and protein concentrations determined using the BCA Protein Assay Reagent obtained from Pierce (Rockford, Ill., United States of America). Western blots were performed as described previously (Yang, T. et al. (2003) J Neurosci 23, 3353-3363). Western blot signals were detected using the ECL Chemiluminescence System obtained by Amersham (Piscataway, N.J., United States of America) (Yang, T. et al. (2003) J Neurosci 23, 3353-3363).

mature oligodendrocytes = assay: Oligodendrocyte cell death assay (MBP/TUNEL) with or without proNGF; type: cell-based, rat
Method: Cortical oligondendrocytes from rat pups were prepared as previously described (Yoon et al. (1998) J Neurosci 18, 3273-3281, Harrington, A. W., Kim, J. Y., Yoon, S. O. (2002) J Neurosci 22, 156-166). Cells were treated with recombinant, cleavage-resistant proNGF at 0.05 nM (2.8 ng/ml). Controls were treated with equivalent volumes of proNGF purification buffer containing 350 mM imidazole. 24 hours after treatment, the cells were fixed and processed for MBP and TUNEL staining as previously described (Beattie, M. S. et al. (2002) Neuron 36, 375-386). 200-250 cells were counted per well, for a minimum of 600 cells per experimental condition.

TrkA-Fc = assay: NGF/TrkA-Fc binding by NGF ELISA; settings: up to 10,000 nM compound
Method: Briefly, 96-well plates were incubated with 0.1 pmol (at 1 nM) of p75/Fc or TrkA/Fc recombinant protein obtained from R&D System (Minneapolis, Minn., United States of America) overnight at 4° C. followed by incubation with blocking buffer for 1 hour at room temperature. […] Plates were then washed five times with Tris-buffered saline (TBS) containing 0.05% Tween-20 and incubated with anti-NGF rabbit polyclonal antibody overnight at 4° C. Following five washes with TBS, wells were incubated for 2.5 hours at room temperature with anti-rabbit IgG HRP conjugate and washed five times. 3,3′,5,5′-tetramethyl-benzidine substrate was added and the optical density measured at 450 nm.

[2] = target: T1, p75^NTR-expressing 3T3 cells (Homo sapiens, UniProt P08138); assay: p75NTR antibody (Ab 9651) competition on 3T3 cells, western blot; type: binding; settings: 100 nM compound, 90 min, 4° C.
T1 construct: host or cells: NIH3T3 fibroblasts
T1 sequence (P08138 29-427): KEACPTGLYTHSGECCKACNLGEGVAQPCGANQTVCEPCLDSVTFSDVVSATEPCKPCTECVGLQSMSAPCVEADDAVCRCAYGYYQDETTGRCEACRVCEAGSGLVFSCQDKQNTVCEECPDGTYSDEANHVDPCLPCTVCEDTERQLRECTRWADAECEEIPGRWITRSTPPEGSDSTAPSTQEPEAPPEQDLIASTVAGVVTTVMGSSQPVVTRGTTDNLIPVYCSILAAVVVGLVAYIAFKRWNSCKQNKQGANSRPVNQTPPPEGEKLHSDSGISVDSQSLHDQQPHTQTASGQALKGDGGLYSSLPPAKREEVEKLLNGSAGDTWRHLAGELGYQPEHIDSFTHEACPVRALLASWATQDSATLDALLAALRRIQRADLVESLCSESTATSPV
Method: NIH3T3 fibroblasts expressing either null vector or p75^NTR (Huang, C. S. et al. (1999) J Biol Chem 274, 36707-36714) were obtained from Dr. William Mobley (Stanford University, Calif., United States of America). Cells were grown in monolayers, harvested in PBS with 2 mM EDTA, pelleted, and resuspended in ice-cold DMEM HEPES with 1 mg/ml BSA. 6-9×10^6 cells from one confluent 6-well plate were used for each experimental point.
For binding analysis, p75^NTR antibody (1:100) was allowed to bind in the presence or absence of 100 nM p75-binding compounds for 90 minutes at 4° C. with gentle rotation, followed by four washes in PBS. The final cell pellet was resuspended in lysis buffer.
Western blots were performed as described above. To detect the presence of p75^NTR antibody, blots were probed with horseradish peroxidase-linked goat anti-rabbit IgG obtained from Amersham/Pharmacia Biotech (Piscataway, N.J., United States of America). Signals were detected by the ECL chemiluminescence system obtained from Amersham Biosciences (Piscataway, […]., United States of America). To control for variation in protein loading, the blot was stripped and reprobed with β-actin monoclonal antibody obtained from Sigma (St. Louis, Mo., United States of America).

hippocampal neurons = assay: Hippocampal neuron survival with p75NTR antisera (antibody inhibition); type: cell-based, mouse; settings: antiserum 1:100, 48 h
Method: as §1, §2
For all studies applying signaling inhibitors, p75^NTR antibodies or p75^NTR−/− neurons, survival was assessed at 48 hours.

effect on NGF binding to TrkA-Fc (TrkA-Fc)	displacement of anti-p75NTR Ab 9651 [2]	SMILES	activity in DRG neuronal survival (chicken DRG neuronal)	neurotrophic activity (neuron survival response) [1]	protection against Aβ1-42-induced death (E17 hippocampal neurons)	NFκB-p65 activation (NFκB-p65)	oligodendrocyte survival with proNGF at 10 nM compound (mature oligodendrocytes; 10 nM compound, proNGF present)	promotion of oligodendrocyte cell death by compound alone (mature oligodendrocytes; absence of proNGF, 24 h)	survival versus CM in the presence of Ab 9651 (hippocampal neurons)
–	–	N=C(N)NC(=N)NCCNC(=N)NC(=N)N [Compound 7]	active	active	–	–	–	–	–
no significant effect up to 10,000 nM	no effect	CCN(CC)CCCNC(=O)Cn1cnc2c1c(=O)n(C)c(=O)n2C [Compound 5]	–	little or no neurotrophic activity; also recorded: no response	failed to block	did not induce	appeared to decrease survival	did not promote cell death	not significant
–	–	NCCNc1ccc([N+](=O)O)c(N2CCCCC2)c1 [Compound 1]	active	active	–	–	–	–	–
